{
  "source": "BigSolDB 2.1",
  "data": [
    {"compound": "N#CC(c1ccc(Cl)cc1)c1c(Cl)cc(-n2ncc(=O)[nH]c2=O)cc1Cl", "note": "(stereo not given)", "values": [
      {"measurement": "solubility (mole fraction)", "setting": "in DMF, 283.15 K", "result": 0.0254},
      {"measurement": "solubility (mole fraction)", "setting": "in DMF, 288.15 K", "result": 0.028},
      {"measurement": "solubility (mole fraction)", "setting": "in DMF, 293.15 K", "result": 0.0309},
      {"measurement": "solubility (mole fraction)", "setting": "in DMF, 298.15 K", "result": 0.0339},
      {"measurement": "solubility (mole fraction)", "setting": "in DMF, 303.15 K", "result": 0.0372},
      {"measurement": "solubility (mole fraction)", "setting": "in DMF, 308.15 K", "result": 0.0407},
      {"measurement": "solubility (mole fraction)", "setting": "in DMF, 313.15 K", "result": 0.0444},
      {"measurement": "solubility (mole fraction)", "setting": "in DMF, 318.15 K", "result": 0.0484},
      {"measurement": "solubility (mole fraction)", "setting": "in DMF, 323.15 K", "result": 0.0527},
      {"measurement": "solubility (mole fraction)", "setting": "in acetone, 283.15 K", "result": 0.012},
      {"measurement": "solubility (mole fraction)", "setting": "in acetone, 288.15 K", "result": 0.014},
      {"measurement": "solubility (mole fraction)", "setting": "in acetone, 293.15 K", "result": 0.0162},
      {"measurement": "solubility (mole fraction)", "setting": "in acetone, 298.15 K", "result": 0.0186},
      {"measurement": "solubility (mole fraction)", "setting": "in acetone, 303.15 K", "result": 0.0215},
      {"measurement": "solubility (mole fraction)", "setting": "in acetone, 308.15 K", "result": 0.0247},
      {"measurement": "solubility (mole fraction)", "setting": "in acetone, 313.15 K", "result": 0.0281},
      {"measurement": "solubility (mole fraction)", "setting": "in acetone, 318.15 K", "result": 0.032},
      {"measurement": "solubility (mole fraction)", "setting": "in acetone, 323.15 K", "result": 0.0361},
      {"measurement": "solubility (mole fraction)", "setting": "in acetonitrile, 283.15 K", "result": 0.00825},
      {"measurement": "solubility (mole fraction)", "setting": "in acetonitrile, 288.15 K", "result": 0.00972},
      {"measurement": "solubility (mole fraction)", "setting": "in acetonitrile, 293.15 K", "result": 0.0115},
      {"measurement": "solubility (mole fraction)", "setting": "in acetonitrile, 298.15 K", "result": 0.0135},
      {"measurement": "solubility (mole fraction)", "setting": "in acetonitrile, 303.15 K", "result": 0.0157},
      {"measurement": "solubility (mole fraction)", "setting": "in acetonitrile, 308.15 K", "result": 0.0183},
      {"measurement": "solubility (mole fraction)", "setting": "in acetonitrile, 313.15 K", "result": 0.0211},
      {"measurement": "solubility (mole fraction)", "setting": "in acetonitrile, 318.15 K", "result": 0.0244},
      {"measurement": "solubility (mole fraction)", "setting": "in acetonitrile, 323.15 K", "result": 0.0279},
      {"measurement": "solubility (mole fraction)", "setting": "in ethanol, 283.15 K", "result": 0.00168},
      {"measurement": "solubility (mole fraction)", "setting": "in ethanol, 288.15 K", "result": 0.00204},
      {"measurement": "solubility (mole fraction)", "setting": "in ethanol, 293.15 K", "result": 0.00245},
      {"measurement": "solubility (mole fraction)", "setting": "in ethanol, 298.15 K", "result": 0.00293},
      {"measurement": "solubility (mole fraction)", "setting": "in ethanol, 303.15 K", "result": 0.00347},
      {"measurement": "solubility (mole fraction)", "setting": "in ethanol, 308.15 K", "result": 0.00407},
      {"measurement": "solubility (mole fraction)", "setting": "in ethanol, 313.15 K", "result": 0.00476},
      {"measurement": "solubility (mole fraction)", "setting": "in ethanol, 318.15 K", "result": 0.00555},
      {"measurement": "solubility (mole fraction)", "setting": "in ethanol, 323.15 K", "result": 0.00641},
      {"measurement": "solubility (mole fraction)", "setting": "in ethyl acetate, 283.15 K", "result": 0.0052},
      {"measurement": "solubility (mole fraction)", "setting": "in ethyl acetate, 288.15 K", "result": 0.00634},
      {"measurement": "solubility (mole fraction)", "setting": "in ethyl acetate, 293.15 K", "result": 0.0077},
      {"measurement": "solubility (mole fraction)", "setting": "in ethyl acetate, 298.15 K", "result": 0.00924},
      {"measurement": "solubility (mole fraction)", "setting": "in ethyl acetate, 303.15 K", "result": 0.0111},
      {"measurement": "solubility (mole fraction)", "setting": "in ethyl acetate, 308.15 K", "result": 0.0132},
      {"measurement": "solubility (mole fraction)", "setting": "in ethyl acetate, 313.15 K", "result": 0.0157},
      {"measurement": "solubility (mole fraction)", "setting": "in ethyl acetate, 318.15 K", "result": 0.0185},
      {"measurement": "solubility (mole fraction)", "setting": "in ethyl acetate, 323.15 K", "result": 0.0217},
      {"measurement": "solubility (mole fraction)", "setting": "in isopropanol, 283.15 K", "result": 0.000798},
      {"measurement": "solubility (mole fraction)", "setting": "in isopropanol, 288.15 K", "result": 0.00102},
      {"measurement": "solubility (mole fraction)", "setting": "in isopropanol, 293.15 K", "result": 0.00129},
      {"measurement": "solubility (mole fraction)", "setting": "in isopropanol, 298.15 K", "result": 0.00163},
      {"measurement": "solubility (mole fraction)", "setting": "in isopropanol, 303.15 K", "result": 0.00204},
      {"measurement": "solubility (mole fraction)", "setting": "in isopropanol, 308.15 K", "result": 0.00251},
      {"measurement": "solubility (mole fraction)", "setting": "in isopropanol, 313.15 K", "result": 0.00308},
      {"measurement": "solubility (mole fraction)", "setting": "in isopropanol, 318.15 K", "result": 0.00374},
      {"measurement": "solubility (mole fraction)", "setting": "in isopropanol, 323.15 K", "result": 0.00455},
      {"measurement": "solubility (mole fraction)", "setting": "in methanol, 283.15 K", "result": 0.00233},
      {"measurement": "solubility (mole fraction)", "setting": "in methanol, 288.15 K", "result": 0.0027},
      {"measurement": "solubility (mole fraction)", "setting": "in methanol, 293.15 K", "result": 0.00316},
      {"measurement": "solubility (mole fraction)", "setting": "in methanol, 298.15 K", "result": 0.00369},
      {"measurement": "solubility (mole fraction)", "setting": "in methanol, 303.15 K", "result": 0.00426},
      {"measurement": "solubility (mole fraction)", "setting": "in methanol, 308.15 K", "result": 0.00494},
      {"measurement": "solubility (mole fraction)", "setting": "in methanol, 313.15 K", "result": 0.00566},
      {"measurement": "solubility (mole fraction)", "setting": "in methanol, 318.15 K", "result": 0.00646},
      {"measurement": "solubility (mole fraction)", "setting": "in methanol, 323.15 K", "result": 0.00737},
      {"measurement": "solubility (mole fraction)", "setting": "in n-butanol, 283.15 K", "result": 0.000481},
      {"measurement": "solubility (mole fraction)", "setting": "in n-butanol, 288.15 K", "result": 0.000639},
      {"measurement": "solubility (mole fraction)", "setting": "in n-butanol, 293.15 K", "result": 0.000851},
      {"measurement": "solubility (mole fraction)", "setting": "in n-butanol, 298.15 K", "result": 0.0011},
      {"measurement": "solubility (mole fraction)", "setting": "in n-butanol, 303.15 K", "result": 0.00142},
      {"measurement": "solubility (mole fraction)", "setting": "in n-butanol, 308.15 K", "result": 0.00181},
      {"measurement": "solubility (mole fraction)", "setting": "in n-butanol, 313.15 K", "result": 0.00229},
      {"measurement": "solubility (mole fraction)", "setting": "in n-butanol, 318.15 K", "result": 0.00288},
      {"measurement": "solubility (mole fraction)", "setting": "in n-butanol, 323.15 K", "result": 0.0036},
      {"measurement": "solubility (mole fraction)", "setting": "in n-propanol, 283.15 K", "result": 0.00118},
      {"measurement": "solubility (mole fraction)", "setting": "in n-propanol, 288.15 K", "result": 0.00146},
      {"measurement": "solubility (mole fraction)", "setting": "in n-propanol, 293.15 K", "result": 0.00179},
      {"measurement": "solubility (mole fraction)", "setting": "in n-propanol, 298.15 K", "result": 0.00221},
      {"measurement": "solubility (mole fraction)", "setting": "in n-propanol, 303.15 K", "result": 0.00268},
      {"measurement": "solubility (mole fraction)", "setting": "in n-propanol, 308.15 K", "result": 0.00321},
      {"measurement": "solubility (mole fraction)", "setting": "in n-propanol, 313.15 K", "result": 0.00383},
      {"measurement": "solubility (mole fraction)", "setting": "in n-propanol, 318.15 K", "result": 0.0046},
      {"measurement": "solubility (mole fraction)", "setting": "in n-propanol, 323.15 K", "result": 0.00543},
      {"measurement": "solubility (mole fraction)", "setting": "in toluene, 283.15 K", "result": 0.000263},
      {"measurement": "solubility (mole fraction)", "setting": "in toluene, 288.15 K", "result": 0.000371},
      {"measurement": "solubility (mole fraction)", "setting": "in toluene, 293.15 K", "result": 0.00052},
      {"measurement": "solubility (mole fraction)", "setting": "in toluene, 298.15 K", "result": 0.000692},
      {"measurement": "solubility (mole fraction)", "setting": "in toluene, 303.15 K", "result": 0.000923},
      {"measurement": "solubility (mole fraction)", "setting": "in toluene, 308.15 K", "result": 0.00123},
      {"measurement": "solubility (mole fraction)", "setting": "in toluene, 313.15 K", "result": 0.00162},
      {"measurement": "solubility (mole fraction)", "setting": "in toluene, 318.15 K", "result": 0.00211},
      {"measurement": "solubility (mole fraction)", "setting": "in toluene, 323.15 K", "result": 0.0027}
    ]}
  ]
}
